According to US20240043473A1, “NOOTROPIC PEPTIDES FOR TREATING LYSOSOMAL STORAGE DISEASES” (Phoenix Nest Inc., priority 2021, published 2024):
“Also recorded” adds a separate entry of the source. No end group written: not given here.

Columns and labels:
[1] = system: Hgsnat^P304L and Hgsnat-Geo MPS IIIC mice; experiment: Elevated Plus Maze test; assay type: in vivo, mouse
Protocol: Method: Elevated plus maze that measures a natural fear of heights reflex of animals. AVP6 was administered intranasally at 50 μg/kg (5 μl/nostril) to the animals 17 h before the experiment.
The elevated plus-maze test was performed as follows. Each mouse was placed in the center of the elevated plus maze and allowed to freely explore undisturbed for 10 min. After each testing, the mouse was returned to the home cage and the arena was cleaned with 70% ethanol before the commencement of the next test. Analysis of the behavioral activity (percentage of time spent in the center zone, closed arms, and open arms; as well as the number of open arm entries) was done by the Smart v3.0 software.
Starting from 3 weeks of age, WT C57B16 and homozygous Hgsnat^P304L male and female mice were randomly divided in treatment and control groups (6-13 mice/sex/genotype/treatment; see Table I). The control group was daily administered with saline (5 μL to each nostril), while for the treatment group, saline was supplemented with 125 µg of AVP6/mL, which would result in a dose of approximately 50 μg/kg BW/day. The peptide formulation was prepared once, aliquoted and kept frozen at −80° C. until use. At 4 months, all mice were studied by EPM, OF, YM and NOR behavioral tests. Administration of the drug or saline was continued through the days on which the assays were conducted. Then approximately at 5 months 4-5 mice in each group were sacrificed. Their blood plasma was collected, and their tissues were either snap-frozen or fixed and cryopreserved to analyze CNS pathology as described above. For the remaining mice, treatment was continued and their behaviour was studied again at the age of 6 months using OF. NOR and YM tests. Starting from the age of 8 months, Hgsnat^P304L treated and untreated mice were daily studied for the signs of urinary retention. When such signs were detected, the mice were studied by ERG and sacrificed within 1-2 days. Finally, the remaining treated and untreated WT mice were studied by ERG and sacrificed at the end of the study, approximately at 10 months of age.

Hgsnat^P304L mice = experiment: Wet spleen weight at sacrifice (splenomegaly); assay type: in vivo, mouse; details: chronic daily 50 μg/kg BW; Hgsnat^P304L mice at sacrifice (9.5-11 months); vs saline
MIP1α = experiment: Expression of inflammatory cytokine in brain (real-time qPCR); assay type: in vivo, mouse; details: chronic daily 50 μg/kg BW; Hgsnat^P304L mice at 5 months; vs saline
Protocol: RNA was isolated from snap-frozen brain, kidney and liver tissues using the TRIzol reagent (Invitrogen) and reverse-transcribed using the iScript™ Reverse Transcription Supermix (Bio RAD #1708840) according to the manufacturer's protocol, qPCR was performed using a LightCycler® 96 Instrument (Roche) and SsoFast™ EvaGreen® Supermix with Low ROX (Bio RAD #1725211) according to the manufacturer's protocol. RLP32 mRNA was used as a reference control.
Starting from 3 weeks of age, WT C57B16 and homozygous Hgsnat^P304L male and female mice were randomly divided in treatment and control groups (6-13 mice/sex/genotype/treatment; see Table I). The control group was daily administered with saline (5 μL to each nostril), while for the treatment group, saline was supplemented with 125 µg of AVP6/mL, which would result in a dose of approximately 50 μg/kg BW/day. The peptide formulation was prepared once, aliquoted and kept frozen at −80° C. until use. At 4 months, all mice were studied by EPM, OF, YM and NOR behavioral tests. Administration of the drug or saline was continued through the days on which the assays were conducted. Then approximately at 5 months 4-5 mice in each group were sacrificed. […] When such signs were detected, the mice were studied by ERG and sacrificed within 1-2 days. […]

[2] = system: CA1 pyramidal neurons in acute hippocampal slices from Hgsnat^Geo mice; experiment: Miniature inhibitory postsynaptic currents (mIPSC), whole cell voltage clamp in acute hippocampal slices; assay type: cell-based, mouse; details: 10 μM bath application, P14-20
Protocol: Method: Whole cell voltage clamp electrophysiology recordings (miniature synaptic currents) were conducted on CA1 pyramidal neurons in acute hippocampal slices.
Acute hippocampal slices were prepared as follows. Briefly, animals were anaesthetized deeply with isoflurane and decapitated. The brain was dissected carefully and transferred rapidly into an ice-cold (0-4° C.) solution containing the following (in mM): 250 sucrose, 2 KCl, 1.25 NaH2PO4, 26 NaHCO3, 7 MgSO4, 0.5 CaCl2 and 10 glucose, pH 7.4. […] Whole-cell patch-clamp recordings were obtained from single cells in voltage- or current-clamp mode and only 1 cell per slice was recorded to enable post-hoc identification and immunohistochemical processing. […]
After obtaining whole cell configuration, passive membrane properties were monitored for 5 min and current clamp recordings were done to measure action potential characteristics. […] Cells were voltage clamped at −70 mV for mEPSCs recording and then held at 0 mV (calculated from the reversal potential of Cl) for mIPSCs recording. […] Both mEPSCs and mIPSCs were recorded for 7 min and a running template on a stable baseline (minimum of 30 events) was used for the analysis of miniature events on MiniAnalysis. […]

[3] = Preliminary studies of activity and stability of the acetylated peptide
[4] = Effect on memory and learning after intranasal administration (earlier work); assay type: in vivo; details: 50 μg/kg BW intranasal; mice and rats

AVP6: N-terminally acetylated Semax, a nootropic peptide having the amino acid sequence of MEHFPGP (SEQ ID NO:1) (Ac-MEHFPGP)
reduced fear (open arm entries, time in open arms), Elevated Plus Maze ([1]; chronic daily intranasal 50 μg/kg BW from 3 weeks, Hgsnat^P304L mice at 4 months): showed no difference from their WT counterparts; also recorded: show the rescue of all above deficits
Elevated Plus Maze parameters in WT mice ([1]; chronic daily treatment, WT mice at 4 months): no effect of the drug was detected in the WT mice
reduced fear/anxiety, Elevated Plus Maze ([1]; single intranasal 50 μg/kg 17 h before test, Hgsnat-Geo mice, 6 months): showed a behavior similar to their WT counterparts; also recorded: also rescues reduced anxiety in EPM test
reduced fear (time spent in open arms, number of open arm entries), Elevated Plus Maze ([1]; single intranasal 50 μg/kg 17 h before test, Hgsnat^P311L (P304L) mice, 4 months): rescues reduced fear; also recorded: showed a behavior similar to their WT counterparts; also recorded: Both parameters are normalized
spleen weight / splenomegaly (Hgsnat^P304L mice): significantly lower spleen weight
expression levels of inflammatory cytokine MIP1α in the brain (MIP1α): reduced expression levels
mIPSC amplitude and frequency deficits [2]: did not recover deficits in mIPSC amplitude and frequency; also recorded: did not increase frequencies or amplitudes of mIPSC; also recorded: does not increase
effect of N-terminal acetylation on activity and stability of the peptide [3]: increase the activity and stability of the peptide
time to maximal effect on memory and learning after intranasal administration [4]: ≤ 24 h
